Drawing on the SangsterLogP compilation, this text covers logP for 24 molecules.

The structures appear in SMILES notation.

The logP is a log measure of how a compound divides between an organic and an aqueous phase. `CC(C)C(=O)NS(=O)(=O)c1cc([N+](=O)[O-])cc(C(F)(F)F)c1`: the logP came out at 3.1.
`CCC(CC)C(=O)Nc1cc(Cl)ccc1S(N)(=O)=O` gave a logP of 2.55.
`Cc1ccc(S(N)(=O)=O)c(NC(=O)C(C)C)c1` displayed a logP of 1.45.
The figure for `CC(C)C(=O)NS(=O)(=O)c1ccccc1[N+](=O)[O-]` is 1.72; for `CC(C)C(=O)NS(=O)(=O)c1ccc(C(F)(F)F)cc1N` it is 2.56.
`CC(C)C(=O)Nc1ccccc1S(N)(=O)=O` returned a logP of 0.97.
Next, `CCC(CC)C(=O)Nc1cc(OC)ccc1S(N)(=O)=O`: 2.01; `CC(C)C(=O)NS(=O)(=O)c1ccccc1N`: 1.17.
The figure for `CCC(CC)C(=O)NS(=O)(=O)c1ccc(Cl)cc1N` is 2.53; for `CCC(CC)C(=O)NS(=O)(=O)c1ccccc1[N+](=O)[O-]` it is 2.17.
The figure for `CCC(CC)C(=O)Nc1cc(C(F)(F)F)ccc1S(N)(=O)=O` is 3.06.
In the case of `CCC(CC)C(=O)NS(=O)(=O)c1ccc(C)cc1N`, the log partition coefficient (logP) worked out at 2.18.
In turn, `CCC(CC)C(=O)Nc1ccccc1S(N)(=O)=O` gave a logP of 1.62.
In turn, `CC(C)C(=O)Nc1ccc(C(F)(F)F)cc1S(N)(=O)=O` displayed a log partition coefficient (logP) of 2.45.
Regarding `CCC(CC)C(=O)NS(=O)(=O)c1ccc(C)cc1[N+](=O)[O-]`, the log partition coefficient (logP) came out at 2.67.
For `CCC(CC)C(=O)NS(=O)(=O)c1cc([N+](=O)[O-])cc(C(F)(F)F)c1`, the lipophilicity (logP) was 3.57.
The molecule `COc1ccc(S(N)(=O)=O)c(NC(=O)C(C)C)c1` registered a log partition coefficient (logP) of 1.37.
The figure for `CCC(CC)C(=O)NS(=O)(=O)c1ccc(OC)cc1N` is 2.03.
The figure for `Cc1ccc(S(=O)(=O)NC(=O)C(C)C)c([N+](=O)[O-])c1` is 2.17; for `Cc1ccc(S(=O)(=O)NC(=O)C(C)C)c(N)c1` it is 1.65.
The figure for `CC(C)C(=O)Nc1cc(Cl)ccc1S(N)(=O)=O` is 1.87.
With `COc1ccc(S(=O)(=O)NC(=O)C(C)C)c(N)c1`, the logP came to 1.58.
Next, `CCC(CC)C(=O)NS(=O)(=O)c1ccccc1N`: 1.64; `CCC(CC)C(=O)Nc1cc(C)ccc1S(N)(=O)=O`: 2.13.
